# Results from patent US8088775B2, “Pharmaceutical composition for treating hair loss” (priority 2004, dated 2012).
# Values joined by “and” are separate entries in the source; they are usually repeats but may differ in a detail not shown here. Equal values may be shown once. Where a name gives a salt, the structure may show the parent alone. Read-outs that look alike come from different tables or passages of the source.
# Key:
# hair loss [1] = settings: external application; cited from earlier work
# [2] = system: prostate glands of castrated male SD rats; test: Anti-androgenic active effects in castrated male SD rats: weight of prostate glands after TP or DHTP inducement; assay type: in vivo; settings: for Average weight of prostate glands: one week, solvent control 23.3±1.5 mg; for Weight of prostate glands after inducement with DHTP / Size of prostate glands enlarged by inducement with TP: one week oral
# Method: In-Vivo Experiment for the Observation of Anti-Androgenic Active Effects of Castrated Male SD Rats (1)
# Each compound is administered orally continuously for one week according to the method of administration shown in Table 1, prostate glands are removed from the rats in each group while watching, and their weights are measured.
# [3] = system: prostate glands of normal male SD rats; test: Anti-androgenic effects in normal male SD rats: weight of prostate glands after 2 weeks; assay type: in vivo; settings: oral; for Average weight of prostate glands: normal 8-week-old male SD rats, solvent control 333.8; for Weight of prostate glands versus solvent control group: normal male SD rats
# Text: In-Vivo Experiment for the Observation of Anti-Androgenic Effects of Normal Male SD Rats (2)
# After the experiments are completed, the changes in the weight of prostate glands removed from normal SD rats and the changes in the weight of normal SD rats measured are shown in Tables 4 and 5 and diagrammatized in FIGS. 3 and 4.
# hair loss [4] = settings: for Degree of efficacy: 10-20% (number of persons) / Degree of efficacy: 20-40% (number of persons) / Degree of efficacy: 40-60% (number of persons) / Degree of efficacy: 60-80% (number of persons) / Degree of efficacy: Greater than 90% (number of persons) / Degree of efficacy: No effect (number of persons) / Time taken for the efficacy to be shown: 3-5 days (number of persons) / Time taken for the efficacy to be shown: 7 days (number of persons) / Time taken for the efficacy to be shown: 14 days (number of persons) / Time taken for the efficacy to be shown: 21 days (number of persons) / Time taken for the efficacy to be shown: 28 days (number of persons) / Time taken for the efficacy to be shown: Minor effect (number of persons): Example 3 primary specimens, extruded material, 10 mg effective component once a day
# Text: Clinical Experiment to Study Effects for the Prevention of Hair Loss, and for Hair Toning and Hair Growth (1)
# The extruded material thus obtained is dried in the floating air layer. The therapeutical efficacy for the prevention of hair loss is experimented clinically by using thus obtained extruded material as shown in Tables 6 and 7. The objects of clinical experiments are selected based on 35 male and female healthy adults older than 20 years old who suffer from symptoms of hair loss. The therapeutical efficacy of female hair loss is also tested as females suffering from hair loss are included in the specimen population (including 5 males in the placebo control group).
# hair loss [5] = system: hair loss
# Text: Clinical Experiment to Study Effects for the Prevention of Hair Loss, and for Hair Toning and Hair Growth (2)
# The effect for the prevention of hair loss is investigated by administering the tablets thus manufactured to 20 healthy adult males who are older than 20 years old and selected to be specimens (including 5 males in the placaebo control group) once a day.
# hair loss [6] = settings: for Degree of efficacy: 10-20% (number of persons) / Degree of efficacy: 20-40% (number of persons) / Degree of efficacy: 40-60% (number of persons) / Degree of efficacy: 60-80% (number of persons) / Degree of efficacy: Greater than 90% (number of persons) / Degree of efficacy: No effect (number of persons) / Time taken for the efficacy to be shown: 3-5 days (number of persons) / Time taken for the efficacy to be shown: 7 days (number of persons) / Time taken for the efficacy to be shown: 14 days (number of persons) / Time taken for the efficacy to be shown: 21 days (number of persons) / Time taken for the efficacy to be shown: 28 days (number of persons) / Time taken for the efficacy to be shown: Minor effect (number of persons): Example 5 tertiary specimens, tablets three times a day (30 mg=3×10 mg)
# Method: Clinical Experiment to Study Effects for the Prevention of Hair Loss, and for Hair Toning and Hair Growth (3)
# The effects for the prevention of hair loss are investigated by administering the tablets thus manufactured to 5 healthy adult males who are older than 20 years old and selected to be specimens three times a day (30 mg=3×10 mg).
# hairs = settings: Example 6; tablets 10 mg once a day for six months; FIG. 5A/5B
# Text: Clinical Experiments to Study Effects of Epilation
# The effects of epilation are investigated by administering the tablets thus manufactured once a day.
# [7] = Example 3, 10 mg once a day, no effects with placebo
# [8] = Example 4 secondary specimens, Total, tablets, 10 mg effective component once a day
structure (smiles),measurement,setting,value
"Nc1cc(N2CCCCC2)nc(N)[n+]1[O-] [Minoxidil, 6-(1-piperidinyl-2,4-pyrimidineamine-3-oxide)]",Reported side effects,hair loss [1],"contact dermatitis, dried mouth, lowering of blood pressure, dizziness"
CC(C)(C)NC(=O)[C@H]1CC[C@H]2[C@@H]3CC[C@H]4NC(=O)C=C[C@]4(C)[C@H]3CC[C@]12C [finasteride],Average weight of prostate glands,"[2]; DHTP 20 μg hypodermic + drug oral daily (finasteride 0.5 mg, composition 5 mg)",53.1 ± 1.4 mg and 53.1 mg
same,Weight of prostate glands after inducement with DHTP,[2],not greatly affected
same,Average weight of prostate glands,"[2]; TP 10 μg hypodermic + drug oral daily (finasteride 0.5 mg, composition 5 mg)",24.5 ± 1.6 mg and 24.5 mg
same,Size of prostate glands enlarged by inducement with TP,[2],reduced to the normal size
same,Average weight of prostate glands,[3],220.0 mg
same,Weight of prostate glands versus solvent control group,[3],significantly lower
"O=C(O)COCCN1CCN(C(c2ccccc2)c2ccc(Cl)cc2)CC1 (centres unmarked) [composition of the present invention, 2-[2-[4-[(4-chlorophenyl)phenylmethyl]-1-piperazinyl]ethoxy]-acetic acid dihydrochloride]",Average weight of prostate glands,"[2]; DHTP 20 μg hypodermic + drug oral daily (finasteride 0.5 mg, composition 5 mg), dihydrochloride",52.2 ± 1.1 mg and 52.2 mg
same,Weight of prostate glands after inducement with DHTP,[2],not greatly affected
same,Average weight of prostate glands,"[2]; TP 10 μg hypodermic + drug oral daily (finasteride 0.5 mg, composition 5 mg), dihydrochloride",25.1 mg
same,Size of prostate glands enlarged by inducement with TP,[2],reduced to the normal size
same,Average weight of prostate glands,[3],226.7 mg
same,Weight of prostate glands versus solvent control group,[3],significantly lower
same,"Effect of prevention of hair loss, time course",hair loss [4]; [7],hair loss is prevented in almost all specimens in about three weeks
same,Effects of the prevention of hair loss in males and females,hair loss [4]; [7],remarkable effects of the prevention of hair loss are observed both in males and females
same,Degree of efficacy: 10-20% (number of persons),hair loss [4]; Female (10),0
same,Degree of efficacy: 20-40% (number of persons),hair loss [4]; Female (10),0
same,Degree of efficacy: 40-60% (number of persons),hair loss [4]; Female (10),3
same,Degree of efficacy: 60-80% (number of persons),hair loss [4]; Female (10),6
same,Degree of efficacy: Greater than 90% (number of persons),hair loss [4]; Female (10),0
same,Degree of efficacy: No effect (number of persons),hair loss [4]; Female (10),1
same,Time taken for the efficacy to be shown: 3-5 days (number of persons),hair loss [4]; Female (10),0
same,Time taken for the efficacy to be shown: 7 days (number of persons),hair loss [4]; Female (10),1
same,Time taken for the efficacy to be shown: 14 days (number of persons),hair loss [4]; Female (10),6
same,Time taken for the efficacy to be shown: 21 days (number of persons),hair loss [4]; Female (10),2
same,Time taken for the efficacy to be shown: 28 days (number of persons),hair loss [4]; Female (10),0
same,Time taken for the efficacy to be shown: Minor effect (number of persons),hair loss [4]; Female (10),1
same,Degree of efficacy: 10-20% (number of persons),hair loss [4]; Male (20),0
same,Degree of efficacy: 20-40% (number of persons),hair loss [4]; Male (20),0
same,Degree of efficacy: 40-60% (number of persons),hair loss [4]; Male (20),6
same,Degree of efficacy: 60-80% (number of persons),hair loss [4]; Male (20),13
same,Degree of efficacy: Greater than 90% (number of persons),hair loss [4]; Male (20),1
same,Degree of efficacy: No effect (number of persons),hair loss [4]; Male (20),0
same,Time taken for the efficacy to be shown: 3-5 days (number of persons),hair loss [4]; Male (20),0
same,Time taken for the efficacy to be shown: 7 days (number of persons),hair loss [4]; Male (20),6
same,Time taken for the efficacy to be shown: 14 days (number of persons),hair loss [4]; Male (20),11
same,Time taken for the efficacy to be shown: 21 days (number of persons),hair loss [4]; Male (20),3
same,Time taken for the efficacy to be shown: 28 days (number of persons),hair loss [4]; Male (20),0
same,Time taken for the efficacy to be shown: Minor effect (number of persons),hair loss [4]; Male (20),0
same,Degree of efficacy: 10-20% (number of persons),hair loss [4]; Total,0
same,Degree of efficacy: 20-40% (number of persons),hair loss [4]; Total,0
same,Degree of efficacy: 40-60% (number of persons),hair loss [4]; Total,9
same,Degree of efficacy: 60-80% (number of persons),hair loss [4]; Total,19
same,Degree of efficacy: Greater than 90% (number of persons),hair loss [4]; Total,1
same,Degree of efficacy: No effect (number of persons),hair loss [4]; Total,1
same,Time taken for the efficacy to be shown: 3-5 days (number of persons),hair loss [4]; Total,0
same,Time taken for the efficacy to be shown: 7 days (number of persons),hair loss [4]; Total,7
same,Time taken for the efficacy to be shown: 14 days (number of persons),hair loss [4]; Total,17
same,Time taken for the efficacy to be shown: 21 days (number of persons),hair loss [4]; Total,5
same,Time taken for the efficacy to be shown: 28 days (number of persons),hair loss [4]; Total,0
same,Time taken for the efficacy to be shown: Minor effect (number of persons),hair loss [4]; Total,1
same,Color and thickness of newly coming out hairs,"hair loss [5]; Example 4, tablets 10 mg once a day",much stronger than those of old hairs
same,Effects for the prevention of hair loss,"hair loss [5]; Example 4, tablets 10 mg once a day, 15 people, no effects with placebo",superior within three weeks in all of 15 people
same,Degree of efficacy: 10-20% (number of persons),hair loss [5]; [8],0
same,Degree of efficacy: 20-40% (number of persons),hair loss [5]; [8],0
same,Degree of efficacy: 40-60% (number of persons),hair loss [5]; [8],5
same,Degree of efficacy: 60-80% (number of persons),hair loss [5]; [8],9
same,Degree of efficacy: Greater than 90% (number of persons),hair loss [5]; [8],1
same,Degree of efficacy: No effect (number of persons),hair loss [5]; [8],0
same,Time taken for the efficacy to be shown: 3-5 days (number of persons),hair loss [5]; [8],0
same,Time taken for the efficacy to be shown: 7 days (number of persons),hair loss [5]; [8],1
same,Time taken for the efficacy to be shown: 14 days (number of persons),hair loss [5]; [8],6
same,Time taken for the efficacy to be shown: 21 days (number of persons),hair loss [5]; [8],8
same,Time taken for the efficacy to be shown: 28 days (number of persons),hair loss [5]; [8],0
same,Time taken for the efficacy to be shown: Minor effect (number of persons),hair loss [5]; [8],0
same,Color and thickness of newly produced hairs,"hair loss [6]; Example 5, tablets 30 mg a day",much stronger than those of old hairs
same,Effects for the prevention of hair loss,"hair loss [6]; Example 5, tablets 30 mg a day, 5 people",superior within one week in all of 5 people
same,Degree of efficacy: 10-20% (number of persons),hair loss [6]; Male (5),0
same,Degree of efficacy: 20-40% (number of persons),hair loss [6]; Male (5),0
same,Degree of efficacy: 40-60% (number of persons),hair loss [6]; Male (5),0
same,Degree of efficacy: 60-80% (number of persons),hair loss [6]; Male (5),2
same,Degree of efficacy: Greater than 90% (number of persons),hair loss [6]; Male (5),3
same,Degree of efficacy: No effect (number of persons),hair loss [6]; Male (5),0
same,Time taken for the efficacy to be shown: 3-5 days (number of persons),hair loss [6]; Male (5),0
same,Time taken for the efficacy to be shown: 7 days (number of persons),hair loss [6]; Male (5),5
same,Time taken for the efficacy to be shown: 14 days (number of persons),hair loss [6]; Male (5),0
same,Time taken for the efficacy to be shown: 21 days (number of persons),hair loss [6]; Male (5),0
same,Time taken for the efficacy to be shown: 28 days (number of persons),hair loss [6]; Male (5),0
same,Time taken for the efficacy to be shown: Minor effect (number of persons),hair loss [6]; Male (5),0
same,Degree of efficacy: 10-20% (number of persons),hair loss [6]; Total (5),0
same,Degree of efficacy: 20-40% (number of persons),hair loss [6]; Total (5),0
same,Degree of efficacy: 40-60% (number of persons),hair loss [6]; Total (5),0
same,Degree of efficacy: 60-80% (number of persons),hair loss [6]; Total (5),2
same,Degree of efficacy: Greater than 90% (number of persons),hair loss [6]; Total (5),3
same,Degree of efficacy: No effect (number of persons),hair loss [6]; Total (5),0
same,Time taken for the efficacy to be shown: 3-5 days (number of persons),hair loss [6]; Total (5),0
same,Time taken for the efficacy to be shown: 7 days (number of persons),hair loss [6]; Total (5),5
same,Time taken for the efficacy to be shown: 14 days (number of persons),hair loss [6]; Total (5),0
same,Time taken for the efficacy to be shown: 21 days (number of persons),hair loss [6]; Total (5),0
same,Time taken for the efficacy to be shown: 28 days (number of persons),hair loss [6]; Total (5),0
same,Time taken for the efficacy to be shown: Minor effect (number of persons),hair loss [6]; Total (5),0
same,"Effects of epilation (photograph, naked eyes)",hairs,considerable effects of epilation
